{"source": "patent USRE34712E", "about": "“Pharmaceutically useful (+)-1-(3-dimethylaminopropyl)-1-(4'-fluorophenyl)-1,3-dihydroiso benzofuran-5-carbonitrile and non-toxic acid addition salts thereof” (priority 1988, dated 1994)", "key": {"depression in man": {"test_system": "depression in man", "settings": "racemate, Ref. A. Gravem et al. 1987; cited from earlier work"}, "[1]": {"test_system": "effect of 5-HTP (5-HT syndrome)", "experiment": "5-HTP-potentiation (5-HT syndrome in mice)", "assay_type": "in vivo", "settings": "5-HTP 100 mg/kg i.v. 30 minutes after test substance, log-probit analysis", "experimental": "The test evaluates the ability of the substance to potentiate the effect of 5-HTP, which results in development of 5-HT syndrome (Christensen, Fjalland, Pedersen, Danneskiold-Samsoe and Svendsen; European J. Pharmacol. 41, 153-162, 1977).\nEach treatment group consists of 3 mice, and two groups are treated with the highest test dose. A control group only treated with 5-HTP is included and a group treated with citalopram 10 mg/kg and 5-HTP is used as reference for full 5-HT syndrome.\n30 minutes after the administration of the test substance, the other groups are given 5-HTP (100 mg/kg) i.v. (injection time 5-10 sec.). After this 5-HTP dose normal, untreated mice remain unaffected, but if the animals have been pretreated with a substance, which inhibits the uptake of 5-HT or a 5-HT agonist, a 5-HTP syndrome will occur. The symptoms are the same as previously described: (1) excitation, (2) tremor, and (3) abduction of the hind limbs. The animals are observed for 15 minutes and each animal is given one point for each symptom present. Again the result is stated in fractions: 0/9, 1/9, . . . 9/9, where 0, 1, . . . , 9 are the number of points per group after the dose in question. The ED50 value is calculated by log-probit analysis."}, "[2]": {"assay_type": "physicochemical", "experimental": "A 2:1 addition compound of the (+)-isomer with L(+)-tartaric acid was prepared in the following manner: 4 g of the (+)-isomer as base were dissolved in 100 ml of diethyl ether and extracted into 100 ml of water containing 0.8 g of L(+)-tartaric acid by stirring. The organic phase was separated and discarded. The water-phase was freeze-dried in vacuo (<0.1 mm Hg) for 18 hours leaving 3.8 g of a white powder of the title compound."}}, "data": [{"compound": "CN(C)CCCC1(c2ccc(F)cc2)OCc2cc(C#N)ccc21", "note": "(racemic) [(±)-citalopram, 1-(3-dimethylaminopropyl)-1-(4'-fluorophenyl)-1,3-dihydroisobenzofuran-5-carbonitrile, reference compound]", "values": [{"measurement": "antidepressant efficacy in man", "setting": "depression in man", "value": "efficient antidepressant compound in man"}, {"measurement": "ED50", "setting": "[1]; Mus musculus, iv, 0.5 h, read-out: 5-HTP pot. ED50", "value": 3.3, "unit": "µmol/kg"}]}, {"compound": "CN(C)CCCC1(c2ccc(F)cc2)OCc2cc(C#N)ccc21", "note": "(single isomer, unassigned) [2:1 addition compound of the (+)-isomer with L(+)-tartaric acid]", "values": [{"measurement": "stability", "setting": "[2]", "value": "stable"}, {"measurement": "hygroscopicity", "setting": "[2]; freeze-dried white powder", "value": "not hygroscopic"}]}, {"compound": "CN(C)CCCC1(c2ccc(F)cc2)OCc2cc(C#N)ccc21", "note": "(single isomer, unassigned; (+)) [(+)-citalopram, (+)-1-(3-Dimethylaminopropyl)-1-(4'-fluorophenyl)-1,3-dihydroisobenzofuran-5-carbonitrile]", "values": [{"measurement": "5-HTP pot. ED50", "setting": "[1]", "value": 2.0, "unit": "µmol/kg"}]}, {"compound": "CN(C)CCCC1(c2ccc(F)cc2)OCc2cc(C#N)ccc21", "note": "(single isomer, unassigned; (-)) [(-)-citalopram, (-)-1-(3-dimethylaminopropyl)-1-(4'-fluorophenyl)-1,3-dihydroisobenzofuran-5-carbonitrile]", "values": [{"measurement": "5-HTP pot. ED50", "setting": "[1]", "value": 120, "unit": "µmol/kg"}]}]}
